Laboratory results published in US6251950A, “Aliphatic propargylamines as cellular rescue agents” (University of Saskatchewan, priority 1998, dated 2001).

Legend:
neurons = conditions: cited from earlier work
[1] = low concentrations; cited from earlier work
SOD1 mRNA, PC12 cells = conditions: Li, et al., 1995; cited from earlier work
[2] = target: T1, rat liver mitochondrial monoamine oxidase B (Rattus norvegicus, UniProt P19643); experiment: biochemical; format: biochemical; conditions: for Comparison to most effective MAO-B inhibitor in group: in vitro, relative to most effective inhibitor in group; for IC50: substrate PE (β-phenylethylamine) 1.9 × 10^-5 M, average of at least 2 independent triplicate experiments
T1 sequence (P19643 1-520): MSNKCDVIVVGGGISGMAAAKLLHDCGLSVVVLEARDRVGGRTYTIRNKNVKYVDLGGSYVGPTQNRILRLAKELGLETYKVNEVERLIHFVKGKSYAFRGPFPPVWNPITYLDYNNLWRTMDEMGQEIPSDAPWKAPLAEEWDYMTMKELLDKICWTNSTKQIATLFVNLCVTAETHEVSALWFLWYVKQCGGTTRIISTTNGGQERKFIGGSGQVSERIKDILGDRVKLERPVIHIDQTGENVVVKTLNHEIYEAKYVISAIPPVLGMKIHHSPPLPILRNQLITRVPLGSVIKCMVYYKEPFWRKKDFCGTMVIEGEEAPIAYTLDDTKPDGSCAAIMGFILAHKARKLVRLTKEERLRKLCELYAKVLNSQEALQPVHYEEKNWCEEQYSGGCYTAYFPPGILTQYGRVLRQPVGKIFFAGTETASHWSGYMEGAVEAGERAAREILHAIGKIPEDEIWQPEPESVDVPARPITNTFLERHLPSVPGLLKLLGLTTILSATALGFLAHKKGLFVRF
Description: Enzyme activity was assessed using a radiometric method as previously described (Yu et al, 1992).

[3] = test system: pyramidal neurons in the hippocampus (CA1 neurons); experiment: Hypoxia/ischaemia model, CA1 neuron survival; format: in vivo, rat; conditions: for mean survival of CA1 neurons, percentage of vehicle treated controls (Table 2) / response vs control in vivo at 0.1 µmol/kg: 0.1 μmol/kg, vehicle = 100%, ± sem (n = 6-10); for mean survival of CA1 neurons, percentage of vehicle treated controls (Table 2): **P < 0.01; for response vs control in vivo at 0.1 µmol/kg: *P < 0.05, **P < 0.01, read-out: Percentage survival of CA1 neurones, of vehicle treated controls (Table 4)
[4] = test system: cerebellar granule cells (CGC); experiment: in vitro; format: cell-based, Wistar rat; conditions: for Percent Apoptotic Nuclei (Ara C + R-2HMP + compound): antagonism, Ara C 100 μM + R-2HMP 100 nM + S-enantiomer 10 μM, #P < 0.05 compared to Ara C + R-2HMP; for Percent Apoptotic Nuclei (Ara C + R-2HMP + compound) / Percent Apoptotic Nuclei (Control + compound) / Percent Apoptotic Nuclei (Ara C + compound): mean ± sem of 4 cultures; for Percent Apoptotic Nuclei (Control + compound): no Ara C, control 4.2 ± 0.3; for Percent Apoptotic Nuclei (Control + compound) / Percent Apoptotic Nuclei (Ara C + compound): R-2HMP 100 nM, S-2HMP 10 μM, S-2HPA 10 μM; for Percent Apoptotic Nuclei (Ara C + compound): with Ara C 100 μM, *P < 0.05 compared to Ara C alone; for blocking of Ara C induced apoptosis: 10^-7 M (FIG. 1c)
Source text: Cultures of cerebellar granule cells (CGC) can be induced into apoptosis by the addition of a high concentration of cytosine arabinoside (Ara C) (Dessi et al., 1995) and it has been shown that this is a p53 dependent apoptosis (Enokido et al, 1996). We have measured the antiapoptotic effect of N-(2-heptyl)propargylamine (2HPA) using this system and compared the results to those obtained with previously known aliphatic methyl propargylamines and deprenyl.
Cultures of CGC were obtained from 6-8 day old Wistar rat pups. Cultures were grown on glass in 35 mm petri dishes for 3 days and then used for experiments. 20 μl aliquots of drug solutions (Ara C, anti-apoptotic drugs, drug vehicles) were added to the medium of the cultures. 24 Hours later the cultures were fixed with FAM, and stained with bis-benzamide. Normal and apoptotic nuclei were counted to a total of 90-120 cells per culture. […] Concentrations in excess of 150 μM caused detachment of the cultures.
Compounds were added at the following concentrations: Ara C, 100 μM,

damaged neurons = conditions: cited from earlier work
HSP70 = experiment: Kainate-induced HSP70 expression in hippocampal CA1 field; format: in vivo, rat; conditions: kainate 10 mg/Kg i.p.; 24 h; mean ± sem (n = 5)
Description: (§1) The levels of both proteins were measured 24 h after a single injection of kainate (10 mg/Kg,i.p). The levels (assessed by quantitative immunohistochemical imaging) can be seen in Table 5.
(§2) Values are means ± sem (n = 5)
(§3) Kainate (10 mg/Kg, i.p.); Rats with seizures between stages IV severe to V
(§4) severe were used. R-2HPA (0.25 mg/Kg, s.c.) was administered 4 h after
(§5) kainate injection; HSP70 and c-Fos expression were assessed 24 h after
(§6) kainate treatment (for details of method please see Zhang et al, 1996).
(§7) Statistics were performed using ANOVA followed by Newman-Keuls multiple

c-Fos = experiment: Kainate-induced delayed c-Fos expression in hippocampal CA1 field; format: in vivo, rat; conditions: kainate 10 mg/Kg i.p.; 24 h; mean ± sem (n = 5)
Description: as §1, §2, §3, §4, §5, §6, §7

mouse brain MAO-B = target: T2, mouse brain MAO-B (Mus musculus, UniProt Q8BW75); experiment: Inhibition in vivo of brain MAO-B activity after intraperitoneal administration; conditions: i.p.
T2 construct: Striata were dissected from the brain two hours after i.p. administration of the drugs; from tissue; host or cells: mouse brain striata, dissected two hours after i.p. dosing
T2 sequence (Q8BW75 1-520): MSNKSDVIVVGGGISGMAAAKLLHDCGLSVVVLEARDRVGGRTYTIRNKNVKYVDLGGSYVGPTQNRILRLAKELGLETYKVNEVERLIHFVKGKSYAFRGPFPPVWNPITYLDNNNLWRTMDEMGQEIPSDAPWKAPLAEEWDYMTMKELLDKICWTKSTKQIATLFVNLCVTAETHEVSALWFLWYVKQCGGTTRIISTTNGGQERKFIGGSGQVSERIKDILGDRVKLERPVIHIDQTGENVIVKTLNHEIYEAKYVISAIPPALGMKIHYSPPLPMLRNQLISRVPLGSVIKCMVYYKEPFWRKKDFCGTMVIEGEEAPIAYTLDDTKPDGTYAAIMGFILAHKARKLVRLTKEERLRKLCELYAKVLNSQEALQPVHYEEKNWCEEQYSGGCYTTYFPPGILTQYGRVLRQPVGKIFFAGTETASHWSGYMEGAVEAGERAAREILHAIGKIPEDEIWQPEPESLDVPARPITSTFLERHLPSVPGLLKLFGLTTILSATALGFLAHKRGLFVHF
Description: Results are the average of two independent triplicate experiments for each i.p. dose. The doses were 0.5, 1, 2, 5, 10, 20 mg/Kg. Striata were dissected from the brain two hours after i.p. administration of the drugs. MAO-B activities were then determined immediately (Yu et al 1992). The values were estimated from dose-response curves.

[5] = Rattus norvegicus, Neuron, sc, s.c.

## C#CCNC1CCc2ccccc21 (stereo not shown) [N-propargyl-1-aminoindan]
neurons
  in vitro neuronal survival after glutamate toxicity: effective in enhancing the in vitro neuronal survival

## CC(N)Cc1ccccc1 (stereo not shown) [amphetamine]
[1]
  neurotoxicity: neurotoxic even at quite low concentrations

## NGF: NGF
SOD1 mRNA, PC12 cells
  SOD1 mRNA induction (previous findings): can induce SOD1 mRNA in a dose dependent manner

## CN[C@@H](C)Cc1ccccc1 [methamphetamine]
[1]
  neurotoxicity: neurotoxic even at quite low concentrations

## C#CCN[C@@H](C)CCCCC [Example S-2HPA, (S)-N-(2-heptyl)-propargylamine]
[2]
  Comparison to most effective MAO-B inhibitor in group: 0.1%
  IC50: 30000 nM
[3]; s.c.
  mean survival of CA1 neurons, percentage of vehicle treated controls (Table 2): 131 ± 19%
[3]; [5]
  response vs control in vivo at 0.1 µmol/kg: 131 ± 19%
[4]
  Percent Apoptotic Nuclei (Ara C + R-2HMP + compound): 13.8 ± 1.2%
  Percent Apoptotic Nuclei (Control + compound): 4.7 ± 0.7%
  Percent Apoptotic Nuclei (Ara C + compound): 14.2 ± 0.9%
[4]; in words
  antagonism of the anti-apoptotic action of the R-enantiomers: antagonists of the anti-apoptotic action of the R-enantiomers
  anti-apoptotic effect: does not have an anti-apoptotic effect

## CCCC(C(=O)OCCN(CC)CC)(c1ccccc1)c1ccccc1 [proadifen]
Damaged neurons; pretreatment with P450 inhibitor
  effect on P450-dependent neurorescue properties of deprenyl: eliminates the neurorescue properties of deprenyl

## C=C(C)[C@H]1CN[C@H](C(=O)O)[C@H]1CC(=O)O [Kainate, kainic acid]
HSP70
  HSP70 (Kainate alone): 10.8 ± 3.1
c-Fos
  Delayed c-Fos (Kainate alone): 18.0 ± 4.5

## C#CCN(C)[C@@H](C)CCCCC [Example S-2HMP, (S)-N-(2-heptyl)-N-methyl-propargylamine]
[2]
  Comparison to most effective MAO-B inhibitor in group: 0.8%
  IC50: 4000 nM
[3]; s.c.
  mean survival of CA1 neurons, percentage of vehicle treated controls (Table 2): 112 ± 23%
[3]; [5]
  response vs control in vivo at 0.1 µmol/kg: 112 ± 23%
[4]
  blocking of Ara C induced apoptosis: did not
  Percent Apoptotic Nuclei (Ara C + R-2HMP + compound): 15.1 ± 0.9%
  Percent Apoptotic Nuclei (Control + compound): 5.0 ± 0.6%
  Percent Apoptotic Nuclei (Ara C + compound): 13.7 ± 1.1%
[4]; in words
  antagonism of the anti-apoptotic action of the R-enantiomers: antagonists of the anti-apoptotic action of the R-enantiomers

## C#CCN(C)[C@H](C)CCCCC [Example R-2HMP, (R)-N-(2-heptyl)-N-methyl-propargylamine]
Mouse brain MAO-B; in vivo, relative to R-2HMP
  Comparison to most effective inhibitor: 100%
Mouse brain MAO-B; mouse brain MAO-B, fold more potent than R-deprenyl
  potency relative to R-deprenyl: 2.5 fold
Mouse brain MAO-B; mouse, ip, 2 h, PE 1.9 × 10^-5 M, striata two hours after administration, estimated from dose-response curves, read-out: IC50 (mg/Kg) (MAO-B, in vivo)
  ED50: 0.2 mg/kg
[2]
  Comparison to most effective MAO-B inhibitor in group: 100%
  IC50: 30 nM
[3]; s.c.
  mean survival of CA1 neurons, percentage of vehicle treated controls (Table 2): 239 ± 35%
  activity in the hypoxia/ischaemia model: shows significant activity
[3]; [5]
  response vs control in vivo at 0.1 µmol/kg: 239 ± 35%
[3]; Rattus norvegicus, Neuron, sc, subcutaneous administration
  ED50: 0.001 to 0.01 µmol/kg
[4]
  blocking of Ara C induced apoptosis: completely blocked
  Percent Apoptotic Nuclei (Control + compound): 4.8 ± 0.7%
  Percent Apoptotic Nuclei (Ara C + compound): 6.3 ± 0.8%
[4]; Rattus norvegicus, inhibition of Ara C induced apoptosis (FIG. 1a, 1b)
  EC50: 1 to 100 nM

## C#CCNC(C)Cc1ccccc1 (stereo not shown) [Desmethyldeprenyl]
Damaged neurons
  anti-apoptotic / neurorescue activity: active as an anti-apoptotic drug

## C#CCN(C)[C@@H](C)Cc1ccccc1 [S-deprenyl]
[4]
  blocking of Ara C induced apoptosis: did not
